Laboratory results taken from US12240862B2, “Inhibitors of peptidylarginine deiminases” (Gilead Sciences, Inc., priority 2020, dated 2025).

The compounds below were run against T1, human PAD4 (Homo sapiens, UniProt Q9UM07) (assay: In vitro PAD4 BAEE biochemical assay). Conditions: human PAD4, BAEE substrate; 5 nM PAD4, 2 mM calcium chloride, 3 mM BAEE; geometric mean of multiple experiments.
T1 construct: human PAD4 (NM_012387), A2P663, was PCR amplified; His-SUMO (N, cleaved yes); made in house; host or cells: E. coli BL21(DE3)
T1 sequence (Q9UM07 2-663): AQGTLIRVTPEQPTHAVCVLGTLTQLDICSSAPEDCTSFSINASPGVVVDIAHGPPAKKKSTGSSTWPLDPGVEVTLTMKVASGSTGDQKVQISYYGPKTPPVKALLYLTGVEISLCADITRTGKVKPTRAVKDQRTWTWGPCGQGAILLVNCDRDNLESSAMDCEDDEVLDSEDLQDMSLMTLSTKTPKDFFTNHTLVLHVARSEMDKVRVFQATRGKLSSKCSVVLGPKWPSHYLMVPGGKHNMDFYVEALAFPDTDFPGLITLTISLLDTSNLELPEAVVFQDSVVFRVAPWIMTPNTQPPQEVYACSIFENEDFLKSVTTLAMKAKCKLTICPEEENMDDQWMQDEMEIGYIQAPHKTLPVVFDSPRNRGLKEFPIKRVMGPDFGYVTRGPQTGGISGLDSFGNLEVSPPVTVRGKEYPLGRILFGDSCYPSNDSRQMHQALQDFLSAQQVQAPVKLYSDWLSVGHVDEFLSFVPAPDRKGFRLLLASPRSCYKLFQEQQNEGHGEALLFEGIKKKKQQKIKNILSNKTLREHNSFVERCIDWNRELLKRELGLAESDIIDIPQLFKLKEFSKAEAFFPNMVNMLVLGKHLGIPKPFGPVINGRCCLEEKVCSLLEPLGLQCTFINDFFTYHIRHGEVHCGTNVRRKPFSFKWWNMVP
Method in brief: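 Ammonia release from BAEE deimination monitored by o-phthalaldehyde amine coupling (1 h, 25 °C) after EDTA stop. Final conditions: 5 nM tag-free recombinant human PAD4 (E. coli), 2 mM CaCl2, 3 mM BAEE, pH 7.6 MOPS with DTT; 30 min compound preincubation, then 2 h reaction at 25 °C.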

SMILES | IC50 [nM]
CCc1ccc2cc(-c3nc4cc(C(=O)N5CC[C@H]6OCCN[C@H]6C5)cc(OC)n4c3C)n(CC3CC3)c2n1 [Example 591, [(4~{a}~{S},8~{a}~{R})-2,3,4,4~{a},5,7,8,8~{a}-octahydropyrido[4,3-b] [1,4]oxazin-6-yl]-[2-[1-(cyclopropylmethyl)-6-ethylpyrrolo[2,3-b]pyridin-2-yl]-5-methoxy-3-methylimidazo[1,2-a]pyridin-7-yl]methanone] | 936
COc1cc(C(=O)N2[C@H]3CC[C@@H]2[C@H](N)C3)cc2nc(-c3cc4ccc(N5CCCC(C)S5(=O)=O)nc4n3CC3CC3)c(C)n12 (stereo partly drawn) [Example 454, [(1~{R},2~{R},4~{S})-2-amino-7-azabicyclo [2.2.1]heptan-7-yl]-[2-[1-(cyclopropylmethyl)-6-(6-methyl-1,1-dioxothiazinan-2-yl)pyrrolo [2,3-b]pyridin-2-yl]-5-methoxy-3-methylimidazo[1,2-a]pyridin-7-yl]methanone] | 145
COc1cc(C(=O)N2[C@H]3CC[C@@H]2[C@H](N)C3)cc2nc(-c3cc4ccc([C@@H](C)NC(=O)C56CC(CO5)C6)nc4n3CC3CC3)c(C)n12 [Example 132, ~{N}-[(1~{R})-1-[2-[7-[(1~{R},2~{R},4~{S})-2-amino-7-azabicyclo[2.2.1]heptane-7-carbonyl]-5-methoxy-3-methylimidazo [1,2-a]pyridin-2-yl]-1-(cyclopropylmethyl)pyrrolo [2,3-b]pyridin-6-yl]ethyl]-2-oxabicyclo[2.1.1]hexane-1-carboxamide] | 698
COc1cc(C(=O)N2[C@H]3CC[C@@H]2[C@H](N)C3)cc2nc(-c3cc4ccc(C5CCN(C)C(=O)C5)nc4n3CC3CC3)c(C)n12 (stereo partly drawn) [Example 560, 4-[2-[7-[(1~{R},2~{R}, 4~{S})-2-amino-7-azabicyclo[2.2.1]heptane-7-carbonyl]-5-methoxy-3-methylimidazo[1,2-a]pyridin-2-yl]-1-(cyclopropylmethyl)pyrrolo [2,3-b]pyridin-6-yl]-1-methylpiperidin-2-one] | 114
COc1cc(C(=O)N2C[C@H](N)CC[C@@H]2C)cc2nc(-c3cc4ccc(C5CC5)nc4n3CC3CC3)c(C)n12 [Example 612, [(2~{S},5~{R})-5-amino-2-methylpiperidin-1-yl]-[2-[6-cyclopropyl-1-(cyclopropylmethyl)pyrrolo [2,3-b]pyridin-2-yl]-5-methoxy-3-methylimidazo[1,2-a]pyridin-7-yl]methanone] | 743
COc1cc(C(=O)N2[C@H]3CC[C@@H]2[C@H](N)C3)cc2nc(-c3cc4ccc([C@@H](C)NC(=O)C5(C(F)F)CC5)nc4n3CC3CC3)c(C)n12 [Example 137, ~{N}-[(1~{R})-1-[2-[7-[(1~{R},2~{R},4~{S})-2-amino-7-azabicyclo[2.2.1]heptane-7-carbonyl]-5-methoxy-3-methylimidazo [1,2-a]pyridin-2-yl]-1-(cyclopropylmethyl)pyrrolo [2,3-b]pyridin-6-yl]ethyl]-1-(difluoromethyl) cyclopropane-1-carboxamide] | 107
COCC1(C(=O)N[C@H](C)c2ccc3cc(-c4nc5cc(C(=O)N6[C@H]7CC[C@@H]6[C@H](N)C7)cc(OC)n5c4C)n(CC4CC4)c3n2)CCC1 [Example 29, ~{N}-[(1~{R})-1-[2-[7-[(1~{R},2~{R},4~{S})-2-amino-7-azabicyclo [2.2.1]heptane-7-carbonyl]-5-methoxy-3-methylimidazo[1,2-a]pyridin-2-yl]-1-(cyclopropylmethyl)pyrrolo[2,3-b]pyridin-6-yl]ethyl]-1-(methoxymethyl) cyclobutane-1-carboxamide] | 108
COc1cc(C(=O)N2[C@H]3CC[C@@H]2[C@H](N)C3)cc2nc(-c3cc4ccc(C5CCCCN5C(=O)C(C)(C)C)nc4n3CC3CC3)c(C)n12 (stereo partly drawn) [Example 514, 1-(2-(2-(7-((1R,2R,4S)-2-amino-7-azabicyclo[2.2.1]heptane-7-carbonyl)-5-methoxy-3-methylimidazo[1,2-a]pyridin-2-yl)-1-(cyclopropylmethyl)-1H-pyrrolo[2,3-b]pyridin-6-yl)piperidin-1-yl)-2,2-dimethylpropan-1-one] | 741
CS(=O)(=O)N(c1ccc2cc(-c3nc4cc(C(=O)N5[C@@H]6CC[C@@H](N)[C@H]5CC6)ccn4c3C3CC3)n(CC3CC3)c2n1)C(F)F [Example 397] | 74.8
CCN(c1ccc2cc(-c3nc4cc(C(=O)N5CCC[C@@H](N)[C@H]5C)cc(OC)n4c3C)n(CC3CC3)c2n1)S(C)(=O)=O [Example 483, ~{N}-[2-[7-[(2~{R}, 3~{R})-3-amino-2-methylpiperidine-1-carbonyl]-5-methoxy-3-methylimidazo[1,2-a]pyridin-2-yl]-1-(cyclopropylmethyl)pyrrolo [2,3-b]pyridin-6-yl]-~{N}-ethylmethanesulfonamide] | 128
COc1cc(C(=O)N2[C@@H]3C[C@@H](N)[C@H]2CC3C)cc2nc(-c3cc4ccc(N(C(F)F)S(C)(=O)=O)nc4n3CC3CC3)c(C)n12 (stereo partly drawn) [Example 352, N-[2-[7-[(1R,2R,4R)-2-amino-5-methyl-7-azabicyclo[2.2.1]heptane-7-carbonyl]-5-methoxy-3-methyl-imidazo[1,2-a]pyridin-2-yl]-1-(cyclopropylmethyl)pyrrolo [2,3-b]pyridin-6-yl]-N-(difluoromethyl) methanesulfonamide] | 711
COc1cc(C(=O)N2[C@H]3CC[C@@H]2[C@H](N)C3)cc2nc(-c3cc4ccc([C@@H](C)NC(=O)CC5(OC)CCC5)nc4n3CC3CC3)c(C)n12 [Example 32, ~{N}-[(1~{R})-1-[2-[7-[(1~{R},2~{R},4~{S})-2-amino-7-azabicyclo [2.2.1]heptane-7-carbonyl]-5-methoxy-3-methylimidazo[1,2-a]pyridin-2-yl]-1-(cyclopropylmethyl)pyrrolo[2,3-b]pyridin-6-yl]ethyl]-2-(1-methoxycyclobutyl) acetamide] | 83
COc1cc(C(=O)N2[C@H]3CC[C@@H]2[C@H](N)C3)cc2nc(-c3cc4ccc(N[C@H](C)C(F)(F)F)nc4n3CC3CC3)c(C)n12 [Example 449] | 6670
COc1cc(C(=O)N2[C@H]3CC[C@@H]2[C@H](N)C3)cc2nc(-c3cc4ccc(C5CCN(C(C)=O)C5)nc4n3CC3CC3)c(C)n12 (stereo partly drawn) [Example 531] | 134
COc1cc(C(=O)N2CCC[C@@H](N)C2)cc2nc(-c3cc4ccc([C@@H](C)NC(=O)C56CC(C#N)(C5)C6)nc4n3CC3CC3)c(C3CC3)n12 [Example 139, ~{N}-[(1~{R})-1-[2-[7-[(3~{R})-3-aminopiperidine-1-carbonyl]-3-cyclopropyl-5-methoxyimidazo [1,2-a]pyridin-2-yl]-1-(cyclopropylmethyl)pyrrolo [2,3-b]pyridin-6-yl]ethyl]-3-cyanobicyclo[1.1.1]pentane-1-carboxamide] | 208
CS(=O)(=O)N(c1ccc2cc(-c3nc4cc(C(=O)N5CC[C@@H](O)[C@@H](N)C5)ccn4c3C3CC3)n(CC3CC3)c2n1)C(F)F [Example 395, ~{N}-[2-[7-[(3~{S},4~{R})-3-amino-4-hydroxypiperidine-1-carbonyl]-3-cyclopropylimidazo[1,2-a]pyridin-2-yl]-1-(cyclopropylmethyl)pyrrolo [2,3-b]pyridin-6-yl]-~{N}-(difluoromethyl) methanesulfonamide] | 259
COc1cc(C(=O)N2CCC[C@@H](N)C2)cc2nc(-c3cc4ccc(-c5cccnc5-c5ccccc5)nc4n3CC3CC3)c(C)n12 [Example 607, [(3~{R})-3-aminopiperidin-1-yl]-[2-[1-(cyclopropylmethyl)-6-(2-phenylpyridin-3-yl)pyrrolo [2,3-b]pyridin-2-yl]-5-methoxy-3-methylimidazo[1,2-a]pyridin-7-yl]methanone] | 345
COc1cc(C(=O)N2[C@H]3CC[C@@H]2[C@H](N)C3)cc2nc(-c3cc4ccc([C@@H](C)NC(=O)Nc5ccc(F)cc5F)nc4n3CC3CC3)c(C)n12 [Example 198, 1-[(1~{R})-1-[2-[7-[(1~{R},2~{R},4~{S})-2-amino-7-azabicyclo[2.2.1]heptane-7-carbonyl]-5-methoxy-3-methylimidazo [1,2-a]pyridin-2-yl]-1-(cyclopropylmethyl)pyrrolo [2,3-b]pyridin-6-yl]ethyl]-3-(2,4-difluorophenyl)urea] | 185
COc1cc(C(=O)N[C@H]2CNCC[C@@H]2C)cc2nc(-c3cc4ccc(N(C(F)F)S(C)(=O)=O)nc4n3CC3CC3)c(C)n12 [Example 288, 2-[1-(cyclopropylmethyl)-6-[difluoromethyl (methylsulfonyl)amino]pyrrolo[2,3-b]pyridin-2-yl]-5-methoxy-3-methyl-~{N}-[(3~{R},4~{S})-4-methylpiperidin-3-yl]imidazo[1,2-a]pyridine-7-carboxamide] | 8360
COc1cc(C(=O)N2CCC[C@@H](N)[C@H]2C)cc2nc(-c3cc4ccc(N(C5CC5)S(C)(=O)=O)nc4n3CC3CC3)c(C)n12 [Example 479, ~{N}-[2-[7-[(2~{R}, 3~{R})-3-amino-2-methylpiperidine-1-carbonyl]-5-methoxy-3-methylimidazo[1,2-a]pyridin-2-yl]-1-(cyclopropylmethyl)pyrrolo [2,3-b]pyridin-6-yl]-~{N}-cyclopropylmethane-sulfonamide] | 181
COc1cc(C(=O)N2CCC[C@@H](N)C2)cc2nc(-c3cc4ccc([C@@H](C)NC(=O)OC5CCCC5)nc4n3CC3CC3)c(C)n12 [Example 255, cyclopentyl~{N}-[(1~{R})-1-[2-[7-[(3~{R})-3-aminopiperidine-1-carbonyl]-5-methoxy-3-methylimidazo[1,2-a]pyridin-2-yl]-1-(cyclopropylmethyl)pyrrolo [2,3-b]pyridin-6-yl]ethyl] carbamate] | 286
